# Reference: patent US9309248B2, “Azaindolines” (Hoffmann-La Roche Inc., priority 2012, dated 2016)
# How the values were obtained:
# [1] = target: T1, BIR2 domain of XIAP (Homo sapiens, UniProt P98170, C202A/C213G); experiment: TR-FRET assay for BIR2 (inhibition of binding of XIAP BIR2 domain to SMAC-derived Peptide A); settings: 6x Histidine-tagged BIR2 domain (amino acids 124-240 of XIAP) 10 nM, Peptide A 20 nM
# T1 construct: 6× Histidine-tagged BIR2 domain, corresponding to amino acids 124-240 of XIAP
# In short: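 Inhibition of binding of the XIAP BIR2 domain (C202A/C213G) to biotinylated SMAC-derived Peptide A was measured. TR-FRET signal was read after 1 h at room temperature.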
# [2] = target: T2, BIR3 domain of XIAP (Homo sapiens, UniProt P98170); experiment: TR-FRET assay for BIR3 (inhibition of binding of XIAP BIR3 domain to SMAC-derived Peptide A); settings: 6x Histidine-tagged BIR3 domain (amino acids 241-356 of XIAP) 10 nM, Peptide A 20 nM
# T2 construct: BIR3 domain, corresponding to amino acids 241-356 of XIAP
# In short: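 His6-tagged XIAP BIR3 (aa 241-356, 10 nM) was mixed with 20 nM biotinylated SMAC-derived peptide in 50 mM Tris-Cl pH 7.5, 100 mM NaCl, 1 mM DTT, 0.1 mg/mL BSA and incubated 45 min at 37 °C. Eu-streptavidin (1.5 nM) and APC anti-His (15 nM) were added, with TR-FRET read 1 h later at RT. IC50 came from % inhibition over 10 serial concentrations.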
# T1 sequence (P98170 with tags, fused parts or gaps C202A/C213G): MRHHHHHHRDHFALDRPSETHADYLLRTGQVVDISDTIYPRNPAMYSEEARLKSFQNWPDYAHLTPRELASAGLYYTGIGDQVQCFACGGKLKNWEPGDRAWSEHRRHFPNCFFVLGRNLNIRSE
# T2 sequence (P98170 with tags, fused parts or gaps): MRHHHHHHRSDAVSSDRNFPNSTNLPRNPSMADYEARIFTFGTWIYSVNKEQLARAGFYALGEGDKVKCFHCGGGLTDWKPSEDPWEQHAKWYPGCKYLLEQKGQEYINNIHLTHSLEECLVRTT
IC50 [1] [nM],IC50 [2] [nM],Compound
46.2,> 54800,"CCN[C@@H](C)C(=O)N[C@H](C(=O)N1c2ncccc2C[C@H]1C(=O)Nc1c(F)cccc1F)C(C)C [Example 77, (S)-1-[(S)-2-((S)-2-Ethylamino-propionylamino)-3-methyl-butyryl]-2,3-dihydro-1H-pyrrolo[2,3-b]pyridine-2-carboxylic acid (2,6-difluoro-phenyl)-amide]"
14.2,> 54800,"CC[C@H](NC)C(=O)N[C@H](C(=O)N1c2ncccc2C[C@H]1C(=O)Nc1c(F)cccc1F)C(C)C [Example 78, (S)-1-[(S)-3-Methyl-2-((S)-2-methylamino-butyrylamino)-butyryl]-2,3-dihydro-1H-pyrrolo[2,3-b]pyridine-2-carboxylic acid (2,6-difluoro-phenyl)-amide]"
> 54800,> 54800,"CN[C@@H](C)C(=O)N[C@H](C(=O)N1c2ncccc2C[C@@H]1C(=O)Nc1ccccc1)C1CCCCC1 [Example 79, (R)-1-[(S)-2-Cyclohexyl-2-((S)-2-methylamino-propionylamino)-acetyl]-2,3-dihydro-1H-pyrrolo[2,3-b]pyridine-2-carboxylic acid phenylamide]"
117,> 54800,"CN[C@@H](C)C(=O)N[C@H](C(=O)N1c2ncccc2C[C@H]1C(=O)Nc1ccccc1)C1CCCCC1 [Example 80, (S)-1-[(S)-2-Cyclohexyl-2-((S)-2-methylamino-propionylamino)-acetyl]-2,3-dihydro-1H-pyrrolo[2,3-b]pyridine-2-carboxylic acid phenylamide]"
10400,> 54800,"CC[C@H](NC)C(=O)N[C@H](C(=O)N1c2ncccc2C[C@@H]1C(=O)Nc1ccccc1)C1CCCCC1 [Example 81, (R)-1-[(S)-2-Cyclohexyl-2-((S)-2-methylamino-butyrylamino)-acetyl]-2,3-dihydro-1H-pyrrolo[2,3-b]pyridine-2-carboxylic acid phenylamide]"
105,> 54800,"CC[C@H](NC)C(=O)N[C@H](C(=O)N1c2ncccc2C[C@H]1C(=O)Nc1ccccc1)C1CCCCC1 [Example 82, 1-[(S)-2-Cyclohexyl-2-((S)-2-methylamino-butyrylamino)-acetyl]-2,3-dihydro-1H-pyrrolo[2,3-b]pyridine-2-carboxylic acid phenylamide]"

# The remaining lines, values behind:
Compound,IC50 [1] [nM],IC50 [2] [nM]
"CNC(=O)c1ccc(NC(=O)[C@@H]2Cc3cccnc3N2C(=O)[C@@H](NC(=O)[C@H](C)NC)C(C)C)c(F)c1 [Example 64, (S)-1-[(S)-3-Methyl-2-((S)-2-methylamino-propionylamino)-butyryl]-2,3-dihydro-1H-pyrrolo[2,3-b]pyridine-2-carboxylic acid (2-fluoro-4-methylcarbamoyl-phenyl)-amide]",59.6,> 54800
"CN[C@@H](C)C(=O)N[C@H](C(=O)N1c2ncccc2C[C@H]1C(=O)Nc1ccc(F)cc1F)C(C)C [Example 65, (S)-1-[(S)-3-Methyl-2-((S)-2-methylamino-propionylamino)-butyryl]-2,3-dihydro-1H-pyrrolo[2,3-b]pyridine-2-carboxylic acid (2,4-difluoro-phenyl)-amide]",35.1,> 54800
"CN[C@@H](C)C(=O)N[C@H](C(=O)N1c2ncccc2C[C@H]1C(=O)Nc1nc(C)cs1)C(C)C [Example 66, (S)-1-[(S)-3-Methyl-2-((S)-2-methylamino-propionylamino)-butyryl]-2,3-dihydro-1H-pyrrolo[2,3-b]pyridine-2-carboxylic acid (4-methyl-thiazol-2-yl)-amide]",496,> 54800
"CN[C@@H](C)C(=O)N[C@H](C(=O)N1c2ncccc2C[C@H]1C(=O)Nc1ncc(C)s1)C(C)C [Example 67, (S)-1-[(S)-3-Methyl-2-((S)-2-methylamino-propionylamino)-butyryl]-2,3-dihydro-1H-pyrrolo[2,3-b]pyridine-2-carboxylic acid (5-methyl-thiazol-2-yl)-amide]",92.6,> 54800
"CN[C@@H](C)C(=O)N[C@H](C(=O)N1c2ncccc2C[C@H]1C(=O)Nc1ccncc1F)C(C)C [Example 69, (S)-1-[(S)-3-Methyl-2-((S)-2-methylamino-propionylamino)-butyryl]-2,3-dihydro-1H-pyrrolo[2,3-b]pyridine-2-carboxylic acid (3-fluoro-pyridin-4-yl)-amide]",105,> 54800
"CN[C@@H](C)C(=O)N[C@H](C(=O)N1c2ncccc2C[C@H]1C(=O)Nc1c(F)cccc1Cl)C(C)C [Example 70, (S)-1-[(S)-3-Methyl-2-((S)-2-methylamino-propionylamino)-butyryl]-2,3-dihydro-1H-pyrrolo[2,3-b]pyridine-2-carboxylic acid (2-chloro-6-fluoro-phenyl)-amide]",21.5,> 54800
"CN[C@@H](C)C(=O)N[C@H](C(=O)N1c2ncccc2C[C@H]1C(=O)Nc1c(C)cccc1Cl)C(C)C [Example 71, (S)-1-[(S)-3-Methyl-2-((S)-2-methylamino-propionylamino)-butyryl]-2,3-dihydro-1H-pyrrolo[2,3-b]pyridine-2-carboxylic acid (2-chloro-6-methyl-phenyl)-amide]",19.2,> 54800
"CN[C@@H](C)C(=O)N[C@H](C(=O)N1c2ncccc2C[C@H]1C(=O)Nc1c(Cl)cc(Cl)cc1Cl)C(C)C [Example 72, (S)-1-[(S)-3-Methyl-2-((S)-2-methylamino-propionylamino)-butyryl]-2,3-dihydro-1H-pyrrolo[2,3-b]pyridine-2-carboxylic acid (2,4,6-trichloro-phenyl)-amide]",13.7,> 54800
"CN[C@@H](C)C(=O)N[C@H](C(=O)N1c2ncccc2C[C@H]1C(=O)Nc1c(F)cccc1C(F)(F)F)C(C)C [Example 73, (S)—N-(2-fluoro-6-(trifluoromethyl)phenyl)-1-((S)-3-methyl-2-((S)-2-(methylamino)propanamido)butanoyl)-2,3-dihydro-1H-pyrrolo[2,3-b]pyridine-2-carboxamide]",69.1,> 54800
"CN[C@@H](C)C(=O)N[C@H](C(=O)N1c2ncccc2C[C@H]1C(=O)Nc1c(Cl)cccc1Cl)C(C)C [Example 74, (S)-1-[(S)-3-Methyl-2-((S)-2-methylamino-propionylamino)-butyryl]-2,3-dihydro-1H-pyrrolo[2,3-b]pyridine-2-carboxylic acid (2,6-dichloro-phenyl)-amide]",16.6,> 54800
"CN[C@@H](C)C(=O)N[C@H](C(=O)N1c2ncccc2C[C@H]1C(=O)Nc1c(Cl)cccc1C(F)(F)F)C(C)C [Example 75, (S)-1-[(S)-3-Methyl-2-((S)-2-methylamino-propionylamino)-butyryl]-2,3-dihydro-1H-pyrrolo[2,3-b]pyridine-2-carboxylic acid (2-chloro-6-trifluoromethyl-phenyl)-amide]",57.5,> 54800
"CCN[C@@H](C)C(=O)N[C@H](C(=O)N1c2ncccc2C[C@H]1C(=O)Nc1ccccc1)C1CCCCC1 [Example 76, (S)-1-[(S)-2-Cyclohexyl-2-((S)-2-ethylamino-propionylamino)-acetyl]-2,3-dihydro-1H-pyrrolo[2,3-b]pyridine-2-carboxylic acid phenylamide]",353,> 54800
